In ChEMBL document CHEMBL4507311, “Data for DCP probe A-1155463” (2021):

Legend:
[1] = target: Epithelial discoidin domain-containing receptor 1 (Homo sapiens) (UniProt Q08345); conditions: Compound concentration 1000.0 nM
[2] = target: Sodium-dependent noradrenaline transporter (Homo sapiens) (UniProt P23975); conditions: Compound concentration 10.0 uM
[3] = target: Receptor-interacting serine/threonine-protein kinase 2 (Homo sapiens) (UniProt O43353); conditions: Compound concentration 1000.0 nM
Sequence of Receptor-interacting serine/threonine-protein kinase 2 (Homo sapiens) (O43353 whole entry): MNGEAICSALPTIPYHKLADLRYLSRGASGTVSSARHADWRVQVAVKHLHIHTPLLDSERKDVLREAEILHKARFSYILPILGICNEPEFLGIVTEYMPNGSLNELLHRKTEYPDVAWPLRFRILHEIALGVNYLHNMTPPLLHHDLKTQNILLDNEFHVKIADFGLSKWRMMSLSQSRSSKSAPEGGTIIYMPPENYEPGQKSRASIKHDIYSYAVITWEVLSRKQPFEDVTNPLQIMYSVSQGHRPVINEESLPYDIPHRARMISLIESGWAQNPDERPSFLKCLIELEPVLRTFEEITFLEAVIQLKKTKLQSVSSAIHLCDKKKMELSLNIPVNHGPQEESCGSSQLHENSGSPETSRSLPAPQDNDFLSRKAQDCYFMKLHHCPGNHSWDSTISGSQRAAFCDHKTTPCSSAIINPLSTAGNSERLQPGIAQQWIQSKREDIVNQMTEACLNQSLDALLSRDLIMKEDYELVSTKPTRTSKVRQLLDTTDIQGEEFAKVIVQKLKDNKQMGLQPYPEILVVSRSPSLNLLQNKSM

[4] = target: Mast/stem cell growth factor receptor Kit (Homo sapiens) (UniProt P10721); conditions: Compound concentration 1000.0 nM
[5] = target: Calcium/calmodulin-dependent protein kinase kinase 1 (Homo sapiens) (UniProt Q8N5S9); conditions: Compound concentration 1000.0 nM
Sequence of Calcium/calmodulin-dependent protein kinase kinase 1 (Homo sapiens) (Q8N5S9 whole entry, looked up): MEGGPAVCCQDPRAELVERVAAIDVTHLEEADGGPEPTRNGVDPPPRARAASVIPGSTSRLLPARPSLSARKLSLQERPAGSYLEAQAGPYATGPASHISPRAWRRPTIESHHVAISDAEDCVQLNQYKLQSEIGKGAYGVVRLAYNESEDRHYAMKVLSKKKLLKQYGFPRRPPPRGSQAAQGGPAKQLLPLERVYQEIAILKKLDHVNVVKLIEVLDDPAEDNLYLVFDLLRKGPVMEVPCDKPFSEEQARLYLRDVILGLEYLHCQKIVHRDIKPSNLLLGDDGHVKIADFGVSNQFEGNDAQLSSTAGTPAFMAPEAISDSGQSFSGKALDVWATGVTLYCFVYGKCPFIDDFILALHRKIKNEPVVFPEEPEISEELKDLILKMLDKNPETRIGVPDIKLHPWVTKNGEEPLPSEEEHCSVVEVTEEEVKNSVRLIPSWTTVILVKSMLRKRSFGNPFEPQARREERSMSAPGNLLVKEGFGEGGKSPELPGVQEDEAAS

[6] = target: Dual specificity tyrosine-phosphorylation-regulated kinase 1A (Homo sapiens) (UniProt Q13627); conditions: Compound concentration 1000.0 nM
[7] = target: Mitogen-activated protein kinase 10 (Homo sapiens) (UniProt P53779); conditions: Compound concentration 1000.0 nM
[8] = target: Interferon-induced, double-stranded RNA-activated protein kinase (Homo sapiens) (UniProt P19525); conditions: Compound concentration 1000.0 nM
Sequence of Interferon-induced, double-stranded RNA-activated protein kinase (Homo sapiens) (P19525 whole entry, canonical isoform): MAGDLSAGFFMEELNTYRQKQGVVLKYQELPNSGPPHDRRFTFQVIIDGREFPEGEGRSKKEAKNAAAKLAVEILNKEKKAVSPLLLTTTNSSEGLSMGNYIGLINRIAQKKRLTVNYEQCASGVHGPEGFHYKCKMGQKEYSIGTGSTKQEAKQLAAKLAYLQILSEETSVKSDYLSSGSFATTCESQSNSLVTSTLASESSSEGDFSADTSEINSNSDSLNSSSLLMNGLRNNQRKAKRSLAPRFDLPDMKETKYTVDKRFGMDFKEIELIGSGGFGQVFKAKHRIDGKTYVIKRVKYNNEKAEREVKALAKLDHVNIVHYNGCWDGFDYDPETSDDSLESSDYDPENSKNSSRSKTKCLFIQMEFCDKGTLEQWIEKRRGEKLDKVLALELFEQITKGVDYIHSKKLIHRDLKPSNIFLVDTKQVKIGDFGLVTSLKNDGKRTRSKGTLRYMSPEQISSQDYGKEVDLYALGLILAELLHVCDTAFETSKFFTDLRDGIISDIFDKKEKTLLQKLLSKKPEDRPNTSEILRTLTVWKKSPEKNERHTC

[9] = target: Phosphorylase b kinase regulatory subunit alpha, liver isoform (Homo sapiens) (UniProt P46019); conditions: Compound concentration 1000.0 nM
[10] = target: T1, 5-hydroxytryptamine receptor 1A (Homo sapiens) (UniProt P08908); conditions: Compound concentration 10.0 uM
T1 sequence (whole entry): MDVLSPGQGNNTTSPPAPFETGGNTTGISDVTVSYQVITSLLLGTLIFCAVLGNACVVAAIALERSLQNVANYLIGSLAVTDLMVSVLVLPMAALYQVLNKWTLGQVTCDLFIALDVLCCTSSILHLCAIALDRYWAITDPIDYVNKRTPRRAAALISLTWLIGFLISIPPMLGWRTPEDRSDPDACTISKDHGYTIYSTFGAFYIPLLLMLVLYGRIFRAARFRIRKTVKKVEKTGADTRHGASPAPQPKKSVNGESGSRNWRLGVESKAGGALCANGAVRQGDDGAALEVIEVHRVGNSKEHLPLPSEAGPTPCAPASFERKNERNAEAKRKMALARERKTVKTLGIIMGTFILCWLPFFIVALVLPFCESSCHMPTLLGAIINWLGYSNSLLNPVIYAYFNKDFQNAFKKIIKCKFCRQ

[11] = target: Mitogen-activated protein kinase 1 (Homo sapiens) (UniProt P28482); conditions: Compound concentration 1000.0 nM
[12] = target: Serine/threonine-protein kinase N1 (Homo sapiens) (UniProt Q16512); conditions: Compound concentration 1000.0 nM
[13] = target: Inhibitor of nuclear factor kappa-B kinase subunit epsilon (Homo sapiens) (UniProt Q14164); conditions: Compound concentration 1000.0 nM
[14] = target: Peripheral plasma membrane protein CASK (Homo sapiens) (UniProt O14936); conditions: Compound concentration 1000.0 nM
[15] = target: Dual specificity mitogen-activated protein kinase kinase 5 (Homo sapiens) (UniProt Q13163); conditions: Compound concentration 1000.0 nM
[16] = target: Muscle, skeletal receptor tyrosine-protein kinase (Homo sapiens) (UniProt O15146); conditions: Compound concentration 1000.0 nM
[17] = target: T2, Muscarinic acetylcholine receptor M4 (Homo sapiens) (UniProt P08173); conditions: Compound concentration 10.0 uM
T2 sequence (whole entry): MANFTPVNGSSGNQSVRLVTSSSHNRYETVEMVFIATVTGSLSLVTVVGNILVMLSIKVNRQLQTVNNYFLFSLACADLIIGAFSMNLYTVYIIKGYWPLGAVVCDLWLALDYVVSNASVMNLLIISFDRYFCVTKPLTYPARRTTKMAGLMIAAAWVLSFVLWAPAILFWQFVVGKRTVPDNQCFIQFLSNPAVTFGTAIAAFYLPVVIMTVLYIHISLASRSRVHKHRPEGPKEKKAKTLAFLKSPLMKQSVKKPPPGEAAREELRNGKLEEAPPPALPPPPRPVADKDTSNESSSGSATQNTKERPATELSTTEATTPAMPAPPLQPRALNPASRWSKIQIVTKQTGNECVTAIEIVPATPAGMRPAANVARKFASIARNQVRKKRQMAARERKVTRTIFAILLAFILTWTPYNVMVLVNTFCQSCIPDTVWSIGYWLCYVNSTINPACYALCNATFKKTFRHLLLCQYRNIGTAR

[18] = target: Myosin light chain kinase family member 4 (Homo sapiens) (UniProt Q86YV6); conditions: Compound concentration 1000.0 nM
[19] = target: High affinity nerve growth factor receptor (Homo sapiens) (UniProt P04629); conditions: Compound concentration 1000.0 nM
[20] = target: Phosphatidylinositol 4,5-bisphosphate 3-kinase catalytic subunit delta isoform (Homo sapiens) (UniProt O00329); conditions: Compound concentration 1000.0 nM
Sequence of Phosphatidylinositol 4,5-bisphosphate 3-kinase catalytic subunit delta isoform (Homo sapiens) (O00329 whole entry, canonical isoform): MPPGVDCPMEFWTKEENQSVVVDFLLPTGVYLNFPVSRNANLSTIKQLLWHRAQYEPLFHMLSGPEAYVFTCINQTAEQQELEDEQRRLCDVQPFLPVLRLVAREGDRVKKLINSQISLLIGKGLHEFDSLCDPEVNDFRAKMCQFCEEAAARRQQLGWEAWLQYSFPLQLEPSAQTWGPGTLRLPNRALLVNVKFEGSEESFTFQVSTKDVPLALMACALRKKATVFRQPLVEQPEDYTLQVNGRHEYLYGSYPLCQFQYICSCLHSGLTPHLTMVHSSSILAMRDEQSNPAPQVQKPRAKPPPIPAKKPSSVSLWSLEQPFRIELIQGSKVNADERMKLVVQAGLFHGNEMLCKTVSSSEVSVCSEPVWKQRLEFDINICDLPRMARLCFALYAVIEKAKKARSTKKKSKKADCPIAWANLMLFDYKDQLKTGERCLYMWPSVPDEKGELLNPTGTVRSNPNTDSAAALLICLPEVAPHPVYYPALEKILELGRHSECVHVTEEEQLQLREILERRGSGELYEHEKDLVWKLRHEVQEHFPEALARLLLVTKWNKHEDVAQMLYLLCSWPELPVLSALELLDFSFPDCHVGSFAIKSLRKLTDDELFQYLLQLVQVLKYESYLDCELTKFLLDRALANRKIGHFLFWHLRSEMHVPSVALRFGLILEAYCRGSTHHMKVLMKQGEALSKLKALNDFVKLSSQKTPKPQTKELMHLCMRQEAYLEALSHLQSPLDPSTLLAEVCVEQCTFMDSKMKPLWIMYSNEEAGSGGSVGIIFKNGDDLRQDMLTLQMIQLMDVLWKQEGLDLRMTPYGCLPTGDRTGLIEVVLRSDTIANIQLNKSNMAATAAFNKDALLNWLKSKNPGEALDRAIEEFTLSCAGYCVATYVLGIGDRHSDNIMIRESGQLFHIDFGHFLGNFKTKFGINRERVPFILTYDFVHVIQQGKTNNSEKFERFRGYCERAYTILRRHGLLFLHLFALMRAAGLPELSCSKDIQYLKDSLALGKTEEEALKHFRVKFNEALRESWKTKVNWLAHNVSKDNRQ

[21] = target: Tyrosine-protein kinase Fes/Fps (Homo sapiens) (UniProt P07332); conditions: Compound concentration 1000.0 nM
[22] = system: Epidermal growth factor receptor (Homo sapiens), P00533 [UNDEFINED MUTATION]; conditions: Compound concentration 1000.0 nM
[23] = target: Ephrin type-A receptor 4 (Homo sapiens) (UniProt P54764); conditions: Compound concentration 1000.0 nM
[24] = target: Ephrin type-A receptor 7 (Homo sapiens) (UniProt Q15375); conditions: Compound concentration 1000.0 nM
[25] = target: Serine/threonine-protein kinase 32B (Homo sapiens) (UniProt Q9NY57); conditions: Compound concentration 1000.0 nM
[26] = target: Receptor-interacting serine/threonine-protein kinase 4 (Homo sapiens) (UniProt P57078); conditions: Compound concentration 1000.0 nM
[27] = target: Ephrin type-A receptor 1 (Homo sapiens) (UniProt P21709); conditions: Compound concentration 1000.0 nM
Sequence of Ephrin type-A receptor 1 (Homo sapiens) (P21709 whole entry): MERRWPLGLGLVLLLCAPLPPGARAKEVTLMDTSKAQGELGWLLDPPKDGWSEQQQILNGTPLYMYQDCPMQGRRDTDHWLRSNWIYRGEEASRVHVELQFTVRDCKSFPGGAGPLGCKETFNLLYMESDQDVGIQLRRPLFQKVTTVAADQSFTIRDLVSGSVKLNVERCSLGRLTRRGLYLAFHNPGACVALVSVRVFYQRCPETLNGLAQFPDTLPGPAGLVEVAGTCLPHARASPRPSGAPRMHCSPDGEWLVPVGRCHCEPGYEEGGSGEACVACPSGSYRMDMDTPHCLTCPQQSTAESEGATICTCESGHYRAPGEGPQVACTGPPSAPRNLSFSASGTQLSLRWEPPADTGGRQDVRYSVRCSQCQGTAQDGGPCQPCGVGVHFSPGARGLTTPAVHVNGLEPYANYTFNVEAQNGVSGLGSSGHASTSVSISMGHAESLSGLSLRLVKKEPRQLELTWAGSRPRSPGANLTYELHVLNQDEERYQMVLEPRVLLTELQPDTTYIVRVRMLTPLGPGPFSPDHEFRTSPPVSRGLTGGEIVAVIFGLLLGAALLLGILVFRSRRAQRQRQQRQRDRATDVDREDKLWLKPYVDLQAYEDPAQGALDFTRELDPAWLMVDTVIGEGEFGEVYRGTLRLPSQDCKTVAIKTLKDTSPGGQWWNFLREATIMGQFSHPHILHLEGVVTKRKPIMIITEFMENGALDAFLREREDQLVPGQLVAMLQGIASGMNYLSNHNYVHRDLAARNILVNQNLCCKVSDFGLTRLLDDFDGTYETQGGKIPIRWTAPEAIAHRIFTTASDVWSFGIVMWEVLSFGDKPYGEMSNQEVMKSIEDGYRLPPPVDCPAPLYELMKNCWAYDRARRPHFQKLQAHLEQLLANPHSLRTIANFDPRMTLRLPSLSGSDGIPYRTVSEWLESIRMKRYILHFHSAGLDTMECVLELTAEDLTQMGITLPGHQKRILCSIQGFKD

[28] = target: Serine/threonine-protein kinase PAK 1 (Homo sapiens) (UniProt Q13153); conditions: Compound concentration 1000.0 nM
[29] = target: Serine/threonine-protein kinase 36 (Homo sapiens) (UniProt Q9NRP7); conditions: Compound concentration 1000.0 nM
Sequence of Serine/threonine-protein kinase 36 (Homo sapiens) (Q9NRP7 whole entry): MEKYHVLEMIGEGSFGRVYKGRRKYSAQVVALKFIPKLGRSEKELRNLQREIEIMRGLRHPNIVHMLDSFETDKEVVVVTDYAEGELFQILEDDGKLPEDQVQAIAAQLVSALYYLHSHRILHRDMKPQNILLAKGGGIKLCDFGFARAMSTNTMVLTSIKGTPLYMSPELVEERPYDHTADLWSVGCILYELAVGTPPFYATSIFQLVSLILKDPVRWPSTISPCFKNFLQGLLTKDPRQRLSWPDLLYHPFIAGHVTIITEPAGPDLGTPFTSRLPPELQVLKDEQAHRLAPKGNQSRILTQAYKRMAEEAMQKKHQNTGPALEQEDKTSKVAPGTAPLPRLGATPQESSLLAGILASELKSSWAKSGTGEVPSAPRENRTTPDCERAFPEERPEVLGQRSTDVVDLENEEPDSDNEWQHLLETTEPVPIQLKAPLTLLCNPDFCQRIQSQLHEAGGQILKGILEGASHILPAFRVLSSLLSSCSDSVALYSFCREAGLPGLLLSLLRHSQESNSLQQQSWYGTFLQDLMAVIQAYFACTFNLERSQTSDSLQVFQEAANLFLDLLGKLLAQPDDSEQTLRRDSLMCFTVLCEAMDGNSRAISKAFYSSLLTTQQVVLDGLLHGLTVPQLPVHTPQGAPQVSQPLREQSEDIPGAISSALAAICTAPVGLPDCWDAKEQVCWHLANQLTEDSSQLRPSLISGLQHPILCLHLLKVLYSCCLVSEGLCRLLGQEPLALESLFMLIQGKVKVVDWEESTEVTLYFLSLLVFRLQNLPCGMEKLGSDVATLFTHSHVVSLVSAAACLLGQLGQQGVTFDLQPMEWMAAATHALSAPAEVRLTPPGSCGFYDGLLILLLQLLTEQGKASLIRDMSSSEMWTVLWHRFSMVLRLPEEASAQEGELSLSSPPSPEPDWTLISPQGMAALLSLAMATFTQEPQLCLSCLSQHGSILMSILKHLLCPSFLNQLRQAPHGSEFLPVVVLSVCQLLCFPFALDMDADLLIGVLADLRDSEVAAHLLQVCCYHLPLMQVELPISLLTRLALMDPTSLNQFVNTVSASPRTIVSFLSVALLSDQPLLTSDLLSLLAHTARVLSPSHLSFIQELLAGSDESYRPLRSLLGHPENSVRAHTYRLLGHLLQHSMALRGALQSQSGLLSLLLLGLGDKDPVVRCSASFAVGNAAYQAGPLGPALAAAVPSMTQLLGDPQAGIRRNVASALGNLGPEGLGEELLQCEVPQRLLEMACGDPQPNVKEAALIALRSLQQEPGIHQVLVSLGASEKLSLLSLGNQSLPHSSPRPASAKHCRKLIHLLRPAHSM

[30] = system: Leucine-rich repeat serine/threonine-protein kinase 2 (Homo sapiens), Q5S007 [G2019S]; conditions: Compound concentration 1000.0 nM
[31] = target: Sigma intracellular receptor 2 (Homo sapiens, UniProt Q5BJF2); conditions: Compound concentration 10.0 uM
[32] = system: Tyrosine-protein kinase ABL1 (Homo sapiens), P00519 [Q252H]; conditions: Compound concentration 1000.0 nM

SMILES: CN(C)CC#Cc1ccc(OCCCc2sc(N3CCc4cccc(C(=O)Nc5nc6ccccc6s5)c4C3)nc2C(=O)O)c(F)c1 [A-1155463]
- residual activity [1]: 100%
- inhibition [2]: 42.9%
- residual activity [3]: 100%
- residual activity [4]: 97%
- residual activity [5]: 87%
- residual activity [6]: 88%
- residual activity [7]: 71%
- residual activity [8]: 100%
- residual activity [9]: 100%
- inhibition [10]: 5.18%
- residual activity [11]: 100%
- residual activity [12]: 91%
- residual activity [13]: 100%
- residual activity [14]: 100%
- residual activity [15]: 100%
- residual activity [16]: 84%
- inhibition [17]: -3.11%
- residual activity [18]: 99%
- residual activity [19]: 100%
- residual activity [20]: 100%
- residual activity [21]: 100%
- residual activity [22]: 100%
- residual activity [23]: 88%
- residual activity [24]: 99%
- residual activity [25]: 95%
- residual activity [26]: 100%
- residual activity [27]: 100%
- residual activity [28]: 98%
- residual activity [29]: 99%
- residual activity [30]: 100%
- inhibition [31]: 83%
- residual activity [32]: 94%
